From patent US8809529B2, “Imidazo[1,2-α]pyrazine derivatives” (Promega Corporation, priority 2010, dated 2014)

Test system: HEK293 cells
Settings: human, 24 h

O=c1c(Cc2ccc(O)cc2)nc2c(Cc3ccccc3)[nH]c(-c3ccccc3)cn1-2 [PBI-3840, 8-benzyl-2-(4-hydroxybenzyl)-6-phenylimidazo[1,2-a]pyrazin-3(7H)-one]
Viability (normalized to vehicle (DMSO) control) (%): 60%
